# Measurements from the NIST ThermoML archive (doi:10.1016/j.jct.2012.05.029).
# Numbers after ± are expanded uncertainties.
# Assay: molar enthalpy of vaporization or sublimation
# Details: Liquid, Thermogravimetric Analysis
SMILES,molar enthalpy (541.8 K) [kcal/mol],further results
CCCCCC[n+]1ccn(C)c1.O=S(=O)([N-]S(=O)(=O)C(F)(F)F)C(F)(F)F,28.2 ± 0.717,
CCCCCCCCn1cc[n+](C)c1.O=S(=O)([N-]S(=O)(=O)C(F)(F)F)C(F)(F)F,29.3 ± 0.717,
CCCCCCCCCCCCn1cc[n+](C)c1.O=S(=O)([N-]S(=O)(=O)C(F)(F)F)C(F)(F)F,,molar enthalpy (533.5 K): 30.1 ± 0.717 kcal/mol
CCCCCCCCCCn1cc[n+](C)c1.O=S(=O)([N-]S(=O)(=O)C(F)(F)F)C(F)(F)F,,molar enthalpy (522 K): 29.9 ± 0.717 kcal/mol
CCCCCCCCCCCCCCCCn1cc[n+](C)c1.O=S(=O)([N-]S(=O)(=O)C(F)(F)F)C(F)(F)F,32.6 ± 0.717,
CCCC[n+]1ccn(C)c1.O=S(=O)([N-]S(=O)(=O)C(F)(F)F)C(F)(F)F,27.1 ± 0.717,
CCCCCCCCCCCCCCn1cc[n+](C)c1.O=S(=O)([N-]S(=O)(=O)C(F)(F)F)C(F)(F)F,31.7 ± 0.717,
CCCCCCCCCCCCCCCCCC[n+]1ccn(C)c1.O=S(=O)([N-]S(=O)(=O)C(F)(F)F)C(F)(F)F,,molar enthalpy (582.5 K): 33.1 ± 0.717 kcal/mol
